Experimental data reported in US11542492B2 (Celgene CAR LLC, priority 2009, dated 2023).

target: T1, p120γ (PI3Kγ) (Homo sapiens, UniProt P48736); experiment: HTRF assay, p120γ; type: biochemical; conditions: PI3Kγ; read-out: PI3Kγ HTRF IC50 Inhibition Designation
T1 construct: purchased BPS Bioscience 40625
Description: The protocol below describes an end-point, competition-binding HTRF assay used to measure inherent potency of test compounds against active p110α/p85α, p110β/p85α, p120γ enzymes. The mechanics of the assay platform are best described by the vendor (Millipore, Billerica, Mass.) on their website at the following URL: http://www.millipore.com/coa/tech1/74jt4z.
Briefly, Stop solution (Stop A, #33-007 and Stop B, #33-009; 3:1 ratio) and Detection Mix (DMC, #33-015 with DMA, #33-011 and DMB, #33-013; 18:1:1 ratio) were prepared as recommended by the manufacturer ˜2 hrs prior to use. Additionally, 1× reaction buffer (4× buffer stock #33-003), a 1.4× stock of enzyme from BPS Bioscience (San Diego, Ca) or Millipore (Billerica, Mass.) with di-C8-PIP2 lipid substrate (#33-005), and a 4×ATP solution (#A7699) Sigma/Aldrich (St. Louis, Mo.) were prepared in 1×reaction buffer. 15 μL of enzyme and lipid substrate mix were pre-incubated in a Corning (#3573) 384-well, black, non-treated microtiter plate (Corning, N.Y.) for 30 min at 25° C. with a 0.5 μL volume of 50% DMSO and serially diluted compounds prepared in 50%-75% DMSO. Lipid kinase reactions were started with the addition of 5 μL of ATP solution, mixed for 15 sec on a rotary plate shaker and incubated for 15-30 minutes at 25° C. Next, reactions were stopped with a 5 μL addition of Stop solution followed by a 5 μL volume of Detection Mix. Stopped reactions were equilibrated for 1 and 18 hrs at room temperature and then read in a Synergy4 plate reader from BioTek (Winooski, Vt.) at λex330-80/λem620-35 and λem665-7.5. At the conclusion of each assay, the HTRF ratio from fluorescence emission values for each well was calculated and % Inhibition determined from averaged controls wells. % Inhibition values for each compound re then plotted against inhibitor concentration to estimate IC50 from log [Inhibitor] vs Response, Variable Slope model in GraphPad Prism from GraphPad Software (San Diego, Calif.).
Reagents Used in Optimized Protocol: • [p120γ]=1-4 nM, [ATP]=50 μM, [di-C8-PIP2]=10 μM • (40625; BPS Bioscience)

T1 sequence (P48736 whole entry): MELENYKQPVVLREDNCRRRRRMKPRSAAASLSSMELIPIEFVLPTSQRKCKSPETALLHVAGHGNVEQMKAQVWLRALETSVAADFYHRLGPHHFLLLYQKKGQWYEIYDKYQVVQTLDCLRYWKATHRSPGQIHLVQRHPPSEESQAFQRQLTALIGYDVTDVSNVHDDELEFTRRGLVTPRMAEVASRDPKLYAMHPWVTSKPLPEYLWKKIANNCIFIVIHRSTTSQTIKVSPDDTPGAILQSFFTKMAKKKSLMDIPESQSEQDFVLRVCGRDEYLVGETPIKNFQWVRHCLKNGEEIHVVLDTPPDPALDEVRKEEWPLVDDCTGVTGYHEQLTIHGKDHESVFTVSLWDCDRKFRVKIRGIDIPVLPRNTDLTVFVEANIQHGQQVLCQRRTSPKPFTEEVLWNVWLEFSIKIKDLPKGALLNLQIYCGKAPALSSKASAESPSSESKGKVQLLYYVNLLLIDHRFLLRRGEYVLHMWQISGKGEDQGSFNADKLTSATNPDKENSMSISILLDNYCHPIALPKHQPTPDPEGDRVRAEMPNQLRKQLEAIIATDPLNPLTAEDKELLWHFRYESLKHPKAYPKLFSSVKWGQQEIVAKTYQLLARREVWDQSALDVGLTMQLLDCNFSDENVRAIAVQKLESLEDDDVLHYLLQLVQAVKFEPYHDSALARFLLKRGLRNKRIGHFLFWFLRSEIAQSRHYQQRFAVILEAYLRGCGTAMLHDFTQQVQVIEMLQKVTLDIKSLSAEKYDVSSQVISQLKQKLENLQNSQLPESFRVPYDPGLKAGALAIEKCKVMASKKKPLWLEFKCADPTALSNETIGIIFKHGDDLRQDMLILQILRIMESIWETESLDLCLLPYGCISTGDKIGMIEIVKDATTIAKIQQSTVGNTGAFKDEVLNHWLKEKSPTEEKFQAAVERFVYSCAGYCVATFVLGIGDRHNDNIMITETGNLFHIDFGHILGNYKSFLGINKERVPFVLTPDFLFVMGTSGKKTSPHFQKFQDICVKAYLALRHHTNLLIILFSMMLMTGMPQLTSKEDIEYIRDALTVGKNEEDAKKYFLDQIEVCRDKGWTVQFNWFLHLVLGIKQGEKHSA

SMILES	IC50
C=CC(=O)N(C)Cc1cc2nc(-c3cccc(O)c3)nc(N3CCOCC3)c2s1 [XXII-5, N-((2-(3-hydroxyphenyl)-4-morpholinothieno[3,2-d]pyrimidin-6-yl)methyl)-N-methylacrylamide]	100 to 1000 nM

same assay, conditions: p120γ; read-out: Reference Inhibitor IC50

SMILES	IC50
Cc1ccc([N+](=O)[O-])cc1S(=O)(=O)N(C)/N=C/c1cnc2ccc(Br)cn12 [PIK75, reference compound]	55 nM

target: T2, recombinant human cIAP-1 (Homo sapiens, UniProt Q13490); experiment: Fluorescence polarization competition binding assay, cIAP-1; conditions: c-IAP-1, 3 h
T2 construct: purchased R&D Systems 818-IA
T2 sequence (Q13490 whole entry): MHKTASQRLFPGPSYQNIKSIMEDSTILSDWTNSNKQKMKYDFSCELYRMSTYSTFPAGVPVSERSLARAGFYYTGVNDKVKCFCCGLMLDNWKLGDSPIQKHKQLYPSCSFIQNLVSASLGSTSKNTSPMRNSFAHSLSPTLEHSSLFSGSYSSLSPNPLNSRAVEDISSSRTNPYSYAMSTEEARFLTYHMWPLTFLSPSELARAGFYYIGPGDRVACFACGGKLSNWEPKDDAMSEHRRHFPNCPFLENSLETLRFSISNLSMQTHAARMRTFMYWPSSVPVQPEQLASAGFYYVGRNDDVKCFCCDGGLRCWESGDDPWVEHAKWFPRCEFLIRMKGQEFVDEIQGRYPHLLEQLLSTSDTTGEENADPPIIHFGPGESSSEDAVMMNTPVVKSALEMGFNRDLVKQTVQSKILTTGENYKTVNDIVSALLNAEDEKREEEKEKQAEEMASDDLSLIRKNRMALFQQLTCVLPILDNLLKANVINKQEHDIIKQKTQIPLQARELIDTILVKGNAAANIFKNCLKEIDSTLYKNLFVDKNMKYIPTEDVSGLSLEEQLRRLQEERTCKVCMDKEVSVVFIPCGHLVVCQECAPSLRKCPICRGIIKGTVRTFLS
Method: Homogeneous, Fluorescence Polarization, Competition Binding Assay Protocol for Affinity Assessment of Compound Binding to XIAP, cIAP-1 and ML-IAPβ BIR3 Domains
1× stocks of recombinant human XIAP; BIR3 domain (895-XB), recombinant human cIAP-1 (818-IA) or recombinant human ML-IAPβ (818-IA) from R&D Systems and Fluorescence Polarization (FP) assay tracer (Atto-647 tagged IAP inhibitor probe compound) were prepared in assay buffer consisting of 25 mM Tris-HCL, pH 7.5 (Sigma), 10 mM […] (Sigma), 1 mM DTT (Fluka) and 0.005% TritonX-100 (Pierce). While IAP protein and tracer equilibrated at ambient temp in the dark (30-60 min), 100× stocks of test compound were prepared in 50% DMSO:H2O, serially diluted and spotted (0.5 µL/well) in duplicate wells of a 384-well, flat bottom, polypropylene, black assay plate (Greiner #781209). […] Competition binding between test compounds and assay tracer was initiated by the addition of 50 µL/well of pre-equilibrated IAP protein and assay tracer. Displacement of the assay tracer was measured in a Synergy plate reader from BioTek (Winooski, Vt.) at λex620/λem680 through a 660 nm half-sized dicroich mirror and S/P polarizing filters every 30 min for 3 hr. (See Huang, X., Journal of Biomolecular Screening 8, 2003). The resulting compound dose response data were fit to a one-site binding Ki model in GraphPad Prism from GraphPad Software (San Diego, Calif.).

SMILES	Ki
CN[C@@H](C)C(=O)N[C@H]1CCCC[C@H]2CC[C@@H](C(=O)NCc3cccc(NC(=O)[C@@H]4CCC(=O)O4)c3)N2C1=O [VII-3]	100 to 1000 nM
CN[C@@H](C)C(=O)N[C@H]1CCCC[C@H]2CC[C@@H](C(=O)NCc3cccc(NC(=O)[C@@H]4CC(=O)N4)c3)N2C1=O [VII-4]	100 to 1000 nM
CN[C@@H](C)C(=O)N[C@H]1CCCC[C@H]2CC[C@@H](C(=O)NCc3cccc(Nc4c(OC(C)C)c(=O)c4=O)c3)N2C1=O [VII-5]	100 to 1000 nM
CN[C@@H](C)C(=O)N[C@H]1CCCC[C@H]2CC[C@@H](C(=O)NCc3cccc(NC(=O)CC(C)=O)c3)N2C1=O [VII-6]	10 to 100 nM
CC(=O)C(C(C)=O)c1cccc(CNC(=O)[C@@H]2CC[C@@H]3CCCC[C@H](NC(=O)[C@H](C)N(C)C(=O)OC(C)(C)C)C(=O)N32)c1 [VII-7, tert-butyl(S)-1-((3S,6S,10aS)-3-(3-(2,4-dioxopentan-3-yl)benzylcarbamoyl)-5-oxodecahydropyrrolo[1,2-a]azocin-6-ylamino)-1-oxopropan-2-yl(methyl)carbamate]	> 10000 nM
CN[C@@H](C)C(=O)N[C@H]1CCCC[C@H]2CC[C@@H](C(=O)NCc3cccc(C(C(C)=O)C(C)=O)c3)N2C1=O [VII-8]	100 to 1000 nM
CN[C@@H](C)C(=O)N[C@H]1CCCC[C@H]2CC[C@@H](C(=O)NCc3cccc(NC(=O)CC(=O)C(F)(F)F)c3)N2C1=O [VII-9]	100 to 1000 nM
CN[C@@H](C)C(=O)N[C@H]1CCCC[C@H]2CC[C@@H](C(=O)NCc3cccc(NC(=O)/C=C/CN(C)C)c3)N2C1=O [VII-10]	100 to 1000 nM
C=C(C)C(=O)Nc1cccc(CNC(=O)[C@@H]2CC[C@@H]3CCCC[C@H](NC(=O)[C@H](C)NC)C(=O)N32)c1 [VII-11]	100 to 1000 nM
CN[C@@H](C)C(=O)N[C@H]1CCCC[C@H]2CC[C@@H](C(=O)NCc3cccc(NC(=O)C=C(C)C)c3)N2C1=O [VII-12]	10 to 100 nM
CN[C@@H](C)C(=O)N[C@H]1CCCC[C@H]2CC[C@@H](C(=O)NCc3cccc(C(=O)N[C@H]4CCOC4=O)c3)N2C1=O [VII-13, (3S,6S,10aS)-6-((S)-2-(methylamino)propanamido)-5-oxo-N-(3-((S)-2-oxotetrahydrofuran-3-ylcarbamoyl)benzyl)decahydropyrrolo[1,2-a]azocine-3-carboxamide]	100 to 1000 nM
CN[C@@H](C)C(=O)N[C@H]1CCCC[C@H]2CC[C@@H](C(=O)NCc3cccc(C(=O)OC4C(=O)OCC4(C)C)c3)N2C1=O (stereo partly shown) [VII-14]	1000 to 10000 nM
CN[C@@H](C)C(=O)N[C@H]1CCCC[C@H]2CC[C@@H](C(=O)NCc3cccc(C(=O)OC4CCOC4=O)c3)N2C1=O (stereo partly shown) [VII-15]	100 to 1000 nM
CN[C@@H](C)C(=O)N[C@H]1CCCC[C@H]2CC[C@@H](C(=O)NCc3cccc(OC4CCOC4=O)c3)N2C1=O (stereo partly shown) [VII-17]	100 to 1000 nM
C=CC(=O)NCc1cccc(CNC(=O)[C@@H]2CC[C@@H]3CCCC[C@H](NC(=O)[C@H](C)NC)C(=O)N32)c1 [VII-18]	100 to 1000 nM
CN[C@@H](C)C(=O)N[C@H]1CCCC[C@H]2CC[C@@H](C(=O)NCc3cccc(C(=O)C=C(C)C)c3)N2C1=O [VII-19]	10 to 100 nM
CN[C@@H](C)C(=O)N[C@H]1CCCC[C@H]2CC[C@@H](C(=O)NCc3cccc(C(=O)N4C[C@@H]5C[C@H]4C(=O)O5)c3)N2C1=O [VII-20, (3S,6S,10aS)-6-((S)-2-(methylamino)propanamido)-5-oxo-N-(3-((1S,4S)-3-oxo-2-oxa-5-azabicyclo[2.2.1]heptane-5-carbonyl)benzyl)decahydropyrrolo[1,2-a]azocine-3-carboxamide]	100 to 1000 nM
CN[C@@H](C)C(=O)N[C@H]1CCCC[C@H]2CC[C@@H](C(=O)NCc3cccc(C(=O)N[C@@H]4COC(=O)C4)c3)N2C1=O [VII-22]	100 to 1000 nM

SMILES	Ki
CN[C@@H](C)C(=O)N[C@H]1CCCC[C@H]2CC[C@@H](C(=O)NCc3cccc(NC(=O)C45CC[C@@](C)(C(=O)O4)C5(C)C)c3)N2C1=O [VII-24]	100 to 1000 nM
CN[C@@H](C)C(=O)N[C@H]1CCCC[C@H]2CC[C@@H](C(=O)NCc3cccc(C(=O)N4C[C@H]5C[C@@H]4C(=O)O5)c3)N2C1=O [VII-25]	100 to 1000 nM
CN[C@@H](C)C(=O)N[C@H]1CCCC[C@H]2CC[C@@H](C(=O)NCc3cccc(NC(=O)C45CC[C@](C)(C(=O)O4)C5(C)C)c3)N2C1=O [VII-26]	100 to 1000 nM
CN[C@@H](C)C(=O)N[C@H]1CCCC[C@H]2CC[C@@H](C(=O)NCc3cccc(C(=O)N[C@@H]4CCOC4=O)c3)N2C1=O [VII-27]	100 to 1000 nM
CN[C@@H](C)C(=O)N[C@H]1CCCC[C@H]2CC[C@@H](C(=O)NCc3cccc(C(=O)N4CCOC(=O)C4)c3)N2C1=O [VII-31]	100 to 1000 nM
CN[C@@H](C)C(=O)N[C@H]1CCCC[C@H]2CC[C@@H](C(=O)NCc3cccc(CNC(=O)[C@@H]4CCC(=O)O4)c3)N2C1=O [VII-32]	100 to 1000 nM
CN[C@@H](C)C(=O)N[C@H]1CCCC[C@H]2CC[C@@H](C(=O)NCc3cccc(CNC(=O)[C@H]4CCC(=O)O4)c3)N2C1=O [VII-33]	1000 to 10000 nM
CN[C@@H](C)C(=O)N[C@H]1CCCC[C@H]2CC[C@@H](C(=O)NCc3cccc(NC(=O)C4(C(C)=O)CC4)c3)N2C1=O [VII-34]	100 to 1000 nM
CN[C@@H](C)C(=O)N[C@H]1CCCC[C@H]2CC[C@@H](C(=O)NCc3cccc(NC(=O)[C@@H]4CCC(=O)N4)c3)N2C1=O [VII-38]	1000 to 10000 nM
CN[C@@H](C)C(=O)N[C@H]1CCCC[C@H]2CC[C@@H](C(=O)NCc3cccc(NC(=O)[C@H]4CCC(=O)N4)c3)N2C1=O [VII-39]	100 to 1000 nM
CN[C@@H](C)C(=O)N[C@H]1CCCC[C@H]2CC[C@@H](C(=O)NCc3cccc(C(=O)NC[C@H]4CCC(=O)O4)c3)N2C1=O [VII-41]	100 to 1000 nM
CN[C@@H](C)C(=O)N[C@H]1CCCC[C@H]2CC[C@@H](C(=O)NCc3cccc(C(=O)NC[C@@H]4CCC(=O)O4)c3)N2C1=O [VII-42]	100 to 1000 nM
CN[C@@H](C)C(=O)N[C@H]1CCCC[C@H]2CC[C@@H](C(=O)NCc3cccc(NC(=O)C4CCOC4=O)c3)N2C1=O (stereo partly shown) [VII-44]	100 to 1000 nM
CN[C@@H](C)C(=O)N[C@H]1CCCC[C@H]2CC[C@@H](C(=O)NCc3cccc(NC(=O)C4COC(=O)C4)c3)N2C1=O (stereo partly shown) [VII-45]	1000 to 10000 nM
CN[C@@H](C)C(=O)N[C@H]1CCCC[C@H]2CC[C@@H](C(=O)NCc3cccc(NC(=O)C4CCCC(=O)O4)c3)N2C1=O (stereo partly shown) [VII-46]	100 to 1000 nM
CN[C@@H](C)C(=O)N[C@H]1CCCC[C@H]2CC[C@@H](C(=O)NCc3cccc(C(=O)N4CCC5C[C@H]4C(=O)O5)c3)N2C1=O [VII-47]	1000 to 10000 nM
CN[C@@H](C)C(=O)N[C@H]1CCCC[C@H]2CC[C@@H](C(=O)NCc3cccc(C(=O)N4CCC5CC4C(=O)O5)c3)N2C1=O (stereo partly shown) [VII-48]	100 to 1000 nM
